Experiments:
barnyardgrass [1] = experiment: Test C preemergence; assay type: in vivo, Echinochloa crusgalli; details: for Barnyardgrass plant response rating: preemergence, 0 to 100 scale (0 no effect, 100 complete control)
Procedure, shortened: (§1)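 Pre: seeds in loam/sand, directed soil spray. Post: 1–2 leaf plants, 2–10 cm. Cmpd in non-phytotoxic solvent + surfactant. Greenhouse 10 d; visual rating vs untreated, 0 = none, 100 = complete control.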

blackgrass [2] = experiment: Test C preemergence; assay type: in vivo, Alopecurus myosuroides; details: for Blackgrass plant response rating: preemergence, 0 to 100 scale (0 no effect, 100 complete control)
Procedure, shortened: as §1

corn [3] = experiment: Test C preemergence; assay type: in vivo, Zea mays; details: for Corn plant response rating: preemergence, 0 to 100 scale (0 no effect, 100 complete control)
Procedure, shortened: as §1

green foxtail [4] = experiment: Test C preemergence; assay type: in vivo, Setaria viridis; details: for Foxtail, Green plant response rating: preemergence, 0 to 100 scale (0 no effect, 100 complete control)
Procedure, shortened: as §1

kochia [5] = experiment: Test C preemergence; assay type: in vivo, Bassia scoparia; details: for Kochia plant response rating: preemergence, 0 to 100 scale (0 no effect, 100 complete control)
Procedure, shortened: as §1

oat, wild [6] = experiment: Test C preemergence; assay type: in vivo, Avena fatua; details: for Oat, Wild plant response rating: preemergence, 0 to 100 scale (0 no effect, 100 complete control)
Procedure, shortened: as §1

pigweed, palmer [7] = experiment: Test C preemergence; assay type: in vivo, Amaranthus palmeri; details: for Pigweed, Palmer plant response rating: preemergence, 0 to 100 scale (0 no effect, 100 complete control)
Procedure, shortened: as §1

ragweed [8] = experiment: Test C preemergence; assay type: in vivo, Ambrosia artemisiifolia; details: for Ragweed plant response rating: preemergence, 0 to 100 scale (0 no effect, 100 complete control)
Procedure, shortened: as §1

ryegrass, Italian [9] = experiment: Test C preemergence; assay type: in vivo, Lolium multiflorum; details: for Ryegrass, Italian plant response rating: preemergence, 0 to 100 scale (0 no effect, 100 complete control)
Procedure, shortened: as §1

soybean [10] = experiment: Test C preemergence; assay type: in vivo, Glycine max; details: for Soybean plant response rating: preemergence, 0 to 100 scale (0 no effect, 100 complete control)
Procedure, shortened: as §1

wheat [11] = experiment: Test C preemergence; assay type: in vivo, Triticum aestivum; details: for Wheat plant response rating: preemergence, 0 to 100 scale (0 no effect, 100 complete control)
Procedure, shortened: as §1

barnyardgrass [12] = experiment: Test C postemergence; assay type: in vivo, Echinochloa crusgalli; details: 10 days
Procedure, shortened: as §1

blackgrass [13] = experiment: Test C postemergence; assay type: in vivo, Alopecurus myosuroides; details: 10 days
Procedure, shortened: as §1

corn [14] = experiment: Test C postemergence; assay type: in vivo, Zea mays; details: 10 days
Procedure, shortened: as §1

green foxtail [15] = experiment: Test C postemergence; assay type: in vivo, Setaria viridis; details: 10 days
Procedure, shortened: as §1

kochia [16] = experiment: Test C postemergence; assay type: in vivo, Bassia scoparia; details: 10 days
Procedure, shortened: as §1

oat, wild [17] = experiment: Test C postemergence; assay type: in vivo, Avena fatua; details: 10 days
Procedure, shortened: as §1

pigweed, palmer [18] = experiment: Test C postemergence; assay type: in vivo, Amaranthus palmeri; details: 10 days
Procedure, shortened: as §1

ragweed [19] = experiment: Test C postemergence; assay type: in vivo, Ambrosia artemisiifolia; details: 10 days
Procedure, shortened: as §1

ryegrass, Italian [20] = experiment: Test C postemergence; assay type: in vivo, Lolium multiflorum; details: 10 days
Procedure, shortened: as §1

soybean [21] = experiment: Test C postemergence; assay type: in vivo, Glycine max; details: 10 days
Procedure, shortened: as §1

wheat [22] = experiment: Test C postemergence; assay type: in vivo, Triticum aestivum; details: 10 days
Procedure, shortened: as §1

galium = experiment: Test C postemergence; assay type: in vivo, Galium aparine; details: 10 days
Procedure, shortened: as §1

horseweed = experiment: Test C postemergence; assay type: in vivo, Erigeron canadensis; details: 10 days
Procedure, shortened: as §1

barnyardgrass [23] = experiment: Test D flooded paddy test; assay type: in vivo, Echinochloa crus-galli; details: 250 g ai/ha, applied to paddy water, visual rating after 13 to 14 days, scale 0 to 100 (0 no effect, 100 complete control)
Procedure, shortened: (§2)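 At the 2-leaf stage, floodwater 3 cm deep received the test compound; that depth persisted throughout. Plants scored visually 13 to 14 days on, 0 (no effect) to 100 (complete control), dash indicating no result.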

ducksalad = experiment: Test D flooded paddy test; assay type: in vivo, Heteranthera limosa; details: 250 g ai/ha, applied to paddy water, visual rating after 13 to 14 days, scale 0 to 100 (0 no effect, 100 complete control)
Procedure, shortened: as §2

rice = experiment: Test D flooded paddy test; assay type: in vivo, Oryza sativa; details: 250 g ai/ha, applied to paddy water, visual rating after 13 to 14 days, scale 0 to 100 (0 no effect, 100 complete control)
Procedure, shortened: as §2

sedge, umbrella = experiment: Test D flooded paddy test; assay type: in vivo, Cyperus difformis; details: 250 g ai/ha, applied to paddy water, visual rating after 13 to 14 days, scale 0 to 100 (0 no effect, 100 complete control)
Procedure, shortened: as §2

[24] = 125 g ai/ha, postemergence, 0 to 100 scale, 0 no effect, 100 complete control
[25] = 500 g ai/ha, postemergence, 0 to 100 scale (0 no effect, 100 complete control)
[26] = Preemergence, 125 g ai/ha, 0 to 100 scale, 0 no effect, 100 complete control
[27] = Postemergence, 125 g ai/ha, 0 to 100 scale (0 no effect, 100 complete control)

Cc1cccc2c1O[C@@H](C)CN2C(=O)c1cccc(-n2cnc(N(C)S(C)(=O)=O)n2)c1 [Compound 299]
25: Plant response rating, Sedge, Umbrella (Flood) (sedge, umbrella)
80: Barnyardgrass plant response rating (barnyardgrass [1]; 500 g ai/ha) | Kochia plant response rating (kochia [5]; 500 g ai/ha) | Plant response rating, Galium (galium; [24])
40: Plant response rating, Foxtail, Green (green foxtail [15]; [25]) | Plant response rating, Pigweed, Palmer (pigweed, palmer [18]; [24]) | Plant response rating, Wheat (wheat [22]; [25])
60: Foxtail, Green plant response rating (green foxtail [4]; Test C, 125 g ai/ha) | Plant response rating, Oat, Wild (oat, wild [17]; [25]) | Plant response rating, Pigweed, Palmer (pigweed, palmer [18]; [25]) | Plant response rating, Soybean (soybean [21]; [24])
50: Pigweed, Palmer plant response rating (pigweed, palmer [7]; Test C, 125 g ai/ha) | Plant response rating, Barnyardgrass (barnyardgrass [12]; [25])
30: Blackgrass plant response rating (blackgrass [2]; Test C, 125 g ai/ha) | Corn plant response rating (corn [3]; 500 g ai/ha) | Wheat plant response rating (wheat [11]; 500 g ai/ha) | Plant response rating, Horseweed (horseweed; [25])
100: Foxtail, Green plant response rating (green foxtail [4]; 500 g ai/ha) | Ragweed plant response rating (ragweed [8]; 500 g ai/ha) | Plant response rating, Soybean (soybean [21]; [25])
20: Plant response rating, Blackgrass (blackgrass [13]; [24]) | Plant response rating, Corn (corn [14]; [25]) | Plant response rating, Oat, Wild (oat, wild [17]; [24]) | Plant response rating, Wheat (wheat [22]; [24])
10: Barnyardgrass plant response rating (barnyardgrass [1]; Test C, 125 g ai/ha) | Plant response rating, Barnyardgrass (barnyardgrass [12]; [24]) | Plant response rating, Corn (corn [14]; [24]) | Plant response rating, Foxtail, Green (green foxtail [15]; [24]) | Plant response rating, Kochia (kochia [16]; [24]) | Plant response rating, Horseweed (horseweed; [24])
70: Blackgrass plant response rating (blackgrass [2]; 500 g ai/ha) | Ragweed plant response rating (ragweed [8]; Test C, 125 g ai/ha) | Ryegrass, Italian plant response rating (ryegrass, Italian [9]; Test C, 125 g ai/ha) | Plant response rating, Kochia (kochia [16]; [25]) | Plant response rating, Ryegrass, Italian (ryegrass, Italian [20]; [24])
0: Corn plant response rating (corn [3]; Test C, 125 g ai/ha) | Kochia plant response rating (kochia [5]; Test C, 125 g ai/ha) | Oat, Wild plant response rating (oat, wild [6]; Test C, 125 g ai/ha) | Soybean plant response rating (soybean [10]; 500 g ai/ha) | Soybean plant response rating (soybean [10]; Test C, 125 g ai/ha) | Wheat plant response rating (wheat [11]; Test C, 125 g ai/ha) | Plant response rating, Ragweed (ragweed [19]; [24]) | Plant response rating, Ragweed (ragweed [19]; [25]) | Plant response rating, Barnyardgrass (Flood) (barnyardgrass [23]) | Plant response rating, Rice (Flood) (rice)
95: Plant response rating, Ducksalad (Flood) (ducksalad)
90: Oat, Wild plant response rating (oat, wild [6]; 500 g ai/ha) | Pigweed, Palmer plant response rating (pigweed, palmer [7]; 500 g ai/ha) | Ryegrass, Italian plant response rating (ryegrass, Italian [9]; 500 g ai/ha) | Plant response rating, Blackgrass (blackgrass [13]; [25]) | Plant response rating, Ryegrass, Italian (ryegrass, Italian [20]; [25]) | Plant response rating, Galium (galium; [25])

Cc1ncn(-c2ccc(C)c(C(=O)N3CC(C(F)(F)F)Oc4c(Cl)cccc43)c2)n1 (centres unmarked) [Compound 349]
80: Blackgrass plant response rating (blackgrass [2]; 500 g ai/ha) | Plant response rating, Kochia (kochia [5]; [26]) | Ragweed plant response rating (ragweed [8]; 500 g ai/ha) | Plant response rating, Corn (corn [14]; [27]) | Plant response rating, Kochia (kochia [16]; [27]) | Plant response rating, Ryegrass, Italian (ryegrass, Italian [20]; [25]) | Plant response rating, Wheat (wheat [22]; [25])
90: Kochia plant response rating (kochia [5]; 500 g ai/ha) | Oat, Wild plant response rating (oat, wild [6]; 500 g ai/ha) | Plant response rating, Barnyardgrass (barnyardgrass [12]; [25]) | Plant response rating, Blackgrass (blackgrass [13]; [27]) | Plant response rating, Corn (corn [14]; [25]) | Plant response rating, Foxtail, Green (green foxtail [15]; [25]) | Plant response rating, Kochia (kochia [16]; [25]) | Plant response rating, Pigweed, Palmer (pigweed, palmer [18]; [25])
40: Plant response rating, Corn (corn [3]; [26]) | Plant response rating, Ragweed (ragweed [19]; [25])
50: Plant response rating, Blackgrass (blackgrass [2]; [26]) | Plant response rating, Soybean (soybean [10]; [26]) | Plant response rating, Pigweed, Palmer (pigweed, palmer [18]; [27]) | Plant response rating, Ryegrass, Italian (ryegrass, Italian [20]; [27]) | Plant response rating, Horseweed (horseweed; [25])
95: Plant response rating, Sedge, Umbrella (Flood) (sedge, umbrella)
60: Corn plant response rating (corn [3]; 500 g ai/ha)
0: Plant response rating, Barnyardgrass (Flood) (barnyardgrass [23]) | Plant response rating, Ducksalad (Flood) (ducksalad) | Plant response rating, Rice (Flood) (rice)
30: Plant response rating, Barnyardgrass (barnyardgrass [12]; [27]) | Plant response rating, Oat, Wild (oat, wild [17]; [27]) | Plant response rating, Ragweed (ragweed [19]; [27]) | Plant response rating, Wheat (wheat [22]; [27])
70: Plant response rating, Barnyardgrass (barnyardgrass [1]; [26]) | Wheat plant response rating (wheat [11]; 500 g ai/ha) | Plant response rating, Foxtail, Green (green foxtail [15]; [27]) | Plant response rating, Oat, Wild (oat, wild [17]; [25])
20: Plant response rating, Oat, Wild (oat, wild [6]; [26]) | Plant response rating, Ragweed (ragweed [8]; [26]) | Plant response rating, Wheat (wheat [11]; [26])
10: Plant response rating, Horseweed (horseweed; [27])
100: Barnyardgrass plant response rating (barnyardgrass [1]; 500 g ai/ha) | Foxtail, Green plant response rating (green foxtail [4]; 500 g ai/ha) | Plant response rating, Foxtail, Green (green foxtail [4]; [26]) | Pigweed, Palmer plant response rating (pigweed, palmer [7]; 500 g ai/ha) | Plant response rating, Pigweed, Palmer (pigweed, palmer [7]; [26]) | Ryegrass, Italian plant response rating (ryegrass, Italian [9]; 500 g ai/ha) | Plant response rating, Ryegrass, Italian (ryegrass, Italian [9]; [26]) | Soybean plant response rating (soybean [10]; 500 g ai/ha) | Plant response rating, Blackgrass (blackgrass [13]; [25]) | Plant response rating, Soybean (soybean [21]; [25]) | Plant response rating, Soybean (soybean [21]; [27]) | Plant response rating, Galium (galium; [25]) | Plant response rating, Galium (galium; [27])
